From patent US9770448B1, “Compositions and methods for treatment of Bowen's disease and related diseases” (priority 2016, dated 2017)

Tests used:
[1] = test system: HPV- laryngeal keratinocytes; assay: In vitro chloroquine-induced killing of laryngeal keratinocytes (HPV-); assay type: cell-based, human; conditions: two days incubation, visual inspection for survival
From the text: (§1) In addition to the foregoing examples, in vitro experimental data have been obtained which indicate that the compositions and methods of the present disclosure can be used in the treatment of recurrent respiratory papillomatosis (RRPRRP) disease, which is also known as laryngeal papillomatosis. RRP is caused by human papillomavirus (HPV), typically HPV6 and HPV11, and involves formation of generally nonmalignant tumors on the larynx or vocal chords, and can spread to the trachea, bronchi and lungs. HPV^+ and HPV^− laryngeal keratinocytes obtained from a recurrent respiratory papillomatosis patient were expanded on Mitomycin C-treated J2 3T3 feeder cell layers in E media with 10 uM Y27632 (ROCK inhibitor). These cells were then plated without feeder layers in 2.5 uM Y27632 and grown until they reached 90% confluency. At this point, fresh E media without Y27632 was added to the cells with increasing concentrations of chloroquine. Chloroquine concentrations used were 0 ug/ml, 2.5 ug/ml, 25 ug/ml, 250 ug/ml, 2.5 mg/ml and 25 mg/ml. Chloroquine powder (Sigma) was resuspended at 25 mg/ml in E media and was brought to pH 7 with 1N NaOH. Working dilutions were made with full E media. Cells were incubated for two days in chloroquine and then visually inspected for survival, as noted by (a) the presence of cells in the wells and (b) morphology of the cells.

[2] = test system: HPV+ laryngeal keratinocytes; assay: In vitro chloroquine-induced killing of laryngeal keratinocytes (HPV+); assay type: cell-based, human; conditions: two days incubation, visual inspection for survival
From the text: as §1

[3] = test system: Bowen's disease; conditions: Example 10 patient history; cited from earlier work

| Compound | Chloroquine concentration that cells survived [1] [µg/mL] | Chloroquine concentrations at which cells were killed [1] [µg/mL] | Chloroquine concentration that cells survived [2] [µg/mL] | Chloroquine concentrations at which cells were killed [2] [µg/mL] | Outcome of earlier over the counter drug as stated by patient [3] |
| --- | --- | --- | --- | --- | --- |
| CCN(CC)CCCC(C)Nc1ccnc2cc(Cl)ccc12 (racemic) [chloroquine, (RS)—N′-(7-chloroquinolin-4-yl)-N,N-diethyl-pentane-1,4-diamine] | 25 | ≥ 250 | 25 | ≥ 250 | – |
| O=C(O)C(Cl)(Cl)Cl [TCA, trichloroacetic acid] | – | – | – | – | made the Bowen's disease Lesion worse |
